Data: ChEMBL document CHEMBL1131484, “Human growth hormone-releasing hormone hGHRH(1-29)-NH2: systematic structure-activity relationship studies” (J Med Chem, 1998)
Where “and” joins values, the source holds several entries; their conditions need not be identical. Equal values may be shown once. Bridge positions count the residues as written; N and C are the ends. Square brackets hold non-standard residues; d marks the D form. Peptide text beside a SMILES is read from it. αMeY = C[C@](N)(Cc1ccc(O)cc1)C(=O)O; Nle = CCCC[C@H](N)C(=O)O

Target: T1, Growth hormone-releasing hormone receptor (Rattus norvegicus) (UniProt Q02644)
T1 sequence (whole entry): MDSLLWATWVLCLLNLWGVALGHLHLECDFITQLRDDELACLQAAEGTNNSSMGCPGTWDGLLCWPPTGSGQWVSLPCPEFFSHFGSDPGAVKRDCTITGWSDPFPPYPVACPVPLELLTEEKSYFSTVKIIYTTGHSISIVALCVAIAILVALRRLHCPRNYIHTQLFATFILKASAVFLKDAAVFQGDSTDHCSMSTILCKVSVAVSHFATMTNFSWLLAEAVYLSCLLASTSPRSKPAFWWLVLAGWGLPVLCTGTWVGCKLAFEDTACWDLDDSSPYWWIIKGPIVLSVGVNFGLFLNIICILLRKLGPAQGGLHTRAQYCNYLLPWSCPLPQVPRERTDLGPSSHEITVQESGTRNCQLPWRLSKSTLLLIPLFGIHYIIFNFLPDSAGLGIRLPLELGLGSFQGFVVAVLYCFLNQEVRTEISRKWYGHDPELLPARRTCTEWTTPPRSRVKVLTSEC
Experiment: Potency for growth hormone releasing hormone receptor (GHRFR) relative to human GHRH(1-40)OH- in the rat pituitary cell culture assay
Assay type: functional, cell-based
Conditions: Pituitary gland cell

In order of falling Relative potency:
1. CC[C@H](C)[C@H](NC(=O)[C@H](C)NC(=O)[C@H](CC(=O)O)NC(=O)[C@H](C)NC(=O)[C@@](C)(N)Cc1ccc(O)cc1)C(=O)N[C@@H](Cc1ccccc1)C(=O)N[C@H](C(=O)N[C@@H](CC(N)=O)C(=O)N[C@@H](CO)C(=O)N[C@@H](Cc1ccc(O)cc1)C(=O)N[C@@H](CCCN=C(N)N)C(=O)N[C@@H](CCCCN)C(=O)N[C@H](C(=O)N[C@@H](CC(C)C)C(=O)N[C@@H](C)C(=O)N[C@@H](CCC(N)=O)C(=O)N[C@@H](CC(C)C)C(=O)N[C@@H](CO)C(=O)N[C@@H](C)C(=O)N[C@@H](CCCN=C(N)N)C(=O)N[C@@H](CCCCN)C(=O)N[C@@H](C)C(=O)N[C@@H](CC(C)C)C(=O)N[C@@H](CCC(N)=O)C(=O)N[C@@H](CC(=O)O)C(=O)N[C@H](C(=O)N[C@@H](CCSC)C(=O)N[C@@H](CO)C(=O)N[C@@H](CCCN=C(N)N)C(N)=O)[C@@H](C)CC)C(C)C)[C@@H](C)O (H-[αMeY]ADAIFTNSYRKVLAQLSARKALQDIMSR-NH2)  25.6
2. CC[C@H](C)[C@H](NC(=O)[C@H](C)NC(=O)[C@H](CC(=O)O)NC(=O)[C@H](C)NC(=O)[C@@](C)(N)Cc1ccc(O)cc1)C(=O)N[C@@H](Cc1ccccc1)C(=O)N[C@H](C(=O)N[C@@H](C)C(=O)N[C@@H](C)C(=O)N[C@@H](Cc1ccc(O)cc1)C(=O)N[C@@H](CCCN=C(N)N)C(=O)N[C@@H](CCCCN)C(=O)N[C@H](C(=O)N[C@@H](CC(C)C)C(=O)N[C@@H](C)C(=O)N[C@@H](CCC(N)=O)C(=O)N[C@@H](CC(C)C)C(=O)N[C@@H](CO)C(=O)N[C@@H](C)C(=O)N[C@@H](CCCN=C(N)N)C(=O)N[C@@H](CCCCN)C(=O)N[C@@H](C)C(=O)N[C@@H](CC(C)C)C(=O)N[C@@H](CCC(N)=O)C(=O)N[C@@H](CC(=O)O)C(=O)N[C@H](C(=O)N[C@@H](CCSC)C(=O)N[C@@H](C)C(=O)N[C@@H](CCCN=C(N)N)C(N)=O)[C@@H](C)CC)C(C)C)[C@@H](C)O (H-[αMeY]ADAIFTAAYRKVLAQLSARKALQDIMAR-NH2)  11.2
3. CCCC[C@H](NC(=O)[C@@H](NC(=O)[C@H](CC(=O)O)NC(=O)[C@H](CCC(N)=O)NC(=O)[C@H](CC(C)C)NC(=O)[C@H](CC(C)C)NC(=O)[C@H](CCCCN)NC(=O)[C@H](CCCN=C(N)N)NC(=O)[C@H](C)NC(=O)[C@H](CO)NC(=O)[C@H](CC(C)C)NC(=O)[C@H](CCC(N)=O)NC(=O)[C@H](C)NC(=O)[C@H](CC(C)C)NC(=O)[C@@H](NC(=O)[C@H](CCCCN)NC(=O)[C@H](CCCN=C(N)N)NC(=O)[C@H](Cc1ccc(O)cc1)NC(=O)[C@H](CO)NC(=O)[C@H](CC(N)=O)NC(=O)[C@@H](NC(=O)[C@H](Cc1ccccc1)NC(=O)[C@@H](NC(=O)[C@H](C)NC(=O)[C@H](CC(=O)O)NC(=O)[C@H](C)NC(=O)[C@@](C)(N)Cc1ccc(O)cc1)[C@@H](C)CC)[C@@H](C)O)C(C)C)[C@@H](C)CC)C(=O)N[C@@H](CO)C(=O)N[C@@H](CCCN=C(N)N)C(N)=O (H-[αMeY]ADAIFTNSYRKVLAQLSARKLLQDI[Nle]SR-NH2)  5.8
4. H-YADAIFTNSYRKVLAQLSARKLLQDIMSR-NH2  5.6
5. H-YADAIFTNSYRKVLGQLSARKALQDIMSR-NH2  4.7
6. H-YADAIFTNAYRKVLGQLSARKLLQDIMSR-NH2  2.6
7. CC[C@H](C)[C@H](NC(=O)[C@H](C)NC(=O)[C@H](CC(=O)O)NC(=O)[C@H](C)NC(=O)[C@@H](N)Cc1ccc(O)cc1)C(=O)N[C@@H](Cc1ccccc1)C(=O)N[C@H](C(=O)N[C@@H](CC(N)=O)C(=O)N[C@@H](CO)C(=O)N[C@@H](Cc1ccc(O)cc1)C(=O)N[C@@H](CCCN=C(N)N)C(=O)N[C@@H](CCCCN)C(=O)N[C@H](C(=O)N[C@@H](CC(C)C)C(=O)NCC(=O)N[C@@H](CCC(N)=O)C(=O)N[C@@H](CC(C)C)C(=O)N[C@@H](CO)C(=O)N[C@@H](C)C(=O)N[C@@H](CCCN=C(N)N)C(=O)N[C@@H](CCCCN)C(=O)N[C@@H](CC(C)C)C(=O)N[C@@H](CC(C)C)C(=O)N[C@@H](CCC(N)=O)C(=O)N[C@@H](CC(=O)O)C(=O)N[C@H](C(=O)N[C@@H](CCSC)C(=O)N[C@@H](C)C(=O)N[C@@H](CCCN=C(N)N)C(N)=O)[C@@H](C)CC)C(C)C)[C@@H](C)O (stereo in doubt; 39)  2.2
8. H-YADAIFTASYRKVLGQLSARKLLQDIMSR-NH2  2.1
9. CC[C@H](C)[C@H](NC(=O)[C@H](C)NC(=O)[C@H](CC(=O)O)NC(=O)[C@H](C)NC(=O)[C@@H](N)Cc1ccc(O)cc1)C(=O)N[C@@H](Cc1ccccc1)C(=O)N[C@H](C(=O)N[C@@H](CC(N)=O)C(=O)N[C@@H](CO)C(=O)N[C@@H](Cc1ccc(O)cc1)C(=O)N[C@@H](CCCN=C(N)N)C(=O)N[C@@H](CCCCN)C(=O)N[C@H](C(=O)N[C@@H](CC(C)C)C(=O)NCC(=O)N[C@@H](CCC(N)=O)C(=O)N[C@@H](CC(C)C)C(=O)N[C@@H](CO)C(=O)N[C@@H](C)C(=O)N[C@@H](CCCN=C(N)N)C(=O)N[C@@H](CCCCN)C(=O)N[C@@H](CC(C)C)C(=O)N[C@@H](CC(C)C)C(=O)N[C@@H](CCC(N)=O)C(=O)N[C@@H](CC(=O)O)C(=O)N[C@H](C(=O)N[C@@H](CCSC)C(=O)N[C@@H](C)C(=O)N[C@@H](CCCN=C(N)N)C(N)=O)[C@@H](C)CC)C(C)C)[C@@H](C)O (stereo in doubt; 27)  1.9
10. H-YADAIFTNSYRKVLGALSARKLLQDIMSR-NH2  1.5
11. H-YADAIFTNSYRKVLGQLSARKLLADIMSR-NH2  1.3
12. H-YADAIFTNSYRKVLGQLSARKLLQAIMSR-NH2  1.3
13. H-YADAIFTNSYRKVLGQLSARKLLQDAMSR-NH2  1.1
14. H-YADAIFTNSYRKVLGQLSARKLLQDIMSA-NH2  0.59
15. H-YADAIFTNSYRKVLGQASARKLLQDIMSR-NH2  0.39
16. H-YADAIFTNSYRKVLGQLSARKLLQDIASR-NH2  0.32
17. H-YADAIFTNSYRKVLGQLSAAKLLQDIMSR-NH2  0.3
18. H-YADAIFANSYRKVLGQLSARKLLQDIMSR-NH2  0.29
19. H-YADAIFTNSYRKVLGQLSARALLQDIMSR-NH2  0.27
20. H-YADAIFTNSYRAVLGQLSARKLLQDIMSR-NH2  0.16
21. H-YADAAFTNSYRKVLGQLSARKLLQDIMSR-NH2  0.1
22. H-YADAIFTNSYRKVLGQLSARKLAQDIMSR-NH2  0.07
23. H-YADAIFTNSYRKALGQLSARKLLQDIMSR-NH2  0.06
24. H-YAAAIFTNSYRKVLGQLSARKLLQDIMSR-NH2  0.05
25. CC[C@H](C)[C@H](NC(=O)[C@H](C)NC(=O)[C@H](CC(=O)O)NC(=O)[C@H](C)NC(=O)[C@@H](N)Cc1ccc(O)cc1)C(=O)N[C@@H](Cc1ccccc1)C(=O)N[C@H](C(=O)N[C@@H](CC(N)=O)C(=O)N[C@@H](CO)C(=O)N[C@@H](Cc1ccc(O)cc1)C(=O)N[C@@H](CCCN=C(N)N)C(=O)N[C@@H](CCCCN)C(=O)N[C@H](C(=O)N[C@H]1CCC(=O)NCCCC[C@@H](C(=O)N[C@@H](CO)C(=O)N[C@@H](C)C(=O)N[C@@H](CCCN=C(N)N)C(=O)N[C@@H](CCCCN)C(=O)N[C@@H](CC(C)C)C(=O)N[C@@H](CC(C)C)C(=O)N[C@@H](CCC(N)=O)C(=O)N[C@@H](CC(=O)O)C(=O)N[C@H](C(=O)N[C@@H](CCSC)C(=O)N[C@@H](CO)C(=O)N[C@@H](CCCN=C(N)N)C(N)=O)[C@@H](C)CC)NC(=O)[C@H](CCC(N)=O)NC(=O)CNC1=O)C(C)C)[C@@H](C)O (H-YADAIFTNSYRKVEGQKSARKLLQDIMSR-NH2; lactam 14-17)  0.026
26. H-AADAIFTNSYRKVLGQLSARKLLQDIMSR-NH2  0.01
27. H-YADAIFTNSARKVLGQLSARKLLQDIMSR-NH2  0.01
28. H-YADAIFTNSYAKVLGQLSARKLLQDIMSR-NH2  0.01
29. H-YADAIFTNSYRKVAGQLSARKLLQDIMSR-NH2  0.01
30. H-YADAIATNSYRKVLGQLSARKLLQDIMSR-NH2  0

In the case of H-YADAIFTNSYRKVLGQLAARKLLQDIMSR-NH2, the Relative potency is reported as 1.6 and 1.4.
